From patent US20040191344A1, “Pharmaceutical composition for prophylaxis or treatment of osteoporosis, and method to prepare the same” (priority 2003, published 2004) come the findings set out here.

For the assay, the system named is rats with ovariectomy-induced osteoporosis. Kind of assay: Ovariectomy-induced osteoporosis model. In kind it is in vivo, rats (strain Sprague-Dawley). Conditions: 3 months. As for the experimental part:
In order to determine the efficacy against osteoporosis in rats (strain Sprague-Dawley), two animal test models were constructed to illustrate the outcomes against normal osteoporosis or estrogen-deficiency-induced osteoporosis, respectively.
In the animal test models, retinoic acid-induced osteoporosis model was used as normal osteoporosis model and ovariectomy-induced model was used as the model for osteoporosis induced by estrogen deficiency.
The following experiment was conducted to test the effects of the pharmaceutical composition of the present invention on rats with ovariectomy-induced osteoporosis in terms of bone mineral contents, bone mineral density, biomechanical index and bone histomorphometry as well as illustrate the claimed efficacy of the pharmaceutical composition.
The ovariectomized animal model was constructed as follows. Anesthesia of the rats was conducted by intra-abdominal injection of 20% urethane according to the dosage of 1 g/kg. The rats were then placed face down, incised in both sides of the spinal cord under aseptic condition, and their ovaries were removed to attain an osteoporosis animal model. For Normal Group, a piece of fat was removed on both sides of back spinal cord. After five days, 72 animals were chosen from the living rats and randomly divided into 9 groups of 8 animals. Administrations were given according to the following conditions:
Normal Group (pseudo-operation): CMC-Na solution 10 ml/kg/d
Affected Group: CMC-Na solution 10 ml/kg/d
Positive Group (Nylestriol): batch no. 020701, provided by Shianghai Hualian Pharmaceuticals, 1 mg/kg, once a week
Subgroup I—Extract of Semen Cuscutae and Fructus Cindii/Composite Groups
(Medium Dosage): 200 mg/kg
Subgroup II—Sole Extract of Semen Cuscutae (Unitary Group)
Subgroup III—Low Dosage Plus Calcium-containing Substance 100 mg/kg, 200 mg/kg in Total
Subgroup IV—Unitary Group Plus Calcium-containing Substance in a Ratio of 70/30, 200 mg/kg in Total
The animals were continuously administered for 3 months. The effects of the pharmaceutical composition of the present invention on morphological alteration of the femur of rats were analyzed using a Dual Energy X-Ray Absorptiometry (DEXA) two days before end of the experiment under the anesthesia of ether. The femur and tibia bone were peeled and measured. Those pieces were soaked in 4% glutaraldehyde (0.1M, pH 7.3) for more than 24 hours. Later on, the vector side of the femur was hacksawed with dental diamond saw blades (grindstone). One piece from each animal was removed and cleaned in 10% sodium hypochlorite solvent for 6 hours, followed by ultra sound wash for 15 minutes.
It was then dehydrated by ethanol-gradient, soaked in ethyl ether, air dried, and then treated with ion sputtering coating (IB-3). The BMD was assessed by dual-energy X-ray absorptiometry (DEXA), and the SX-40 X-ray bone densitometer on 20,000 volt. The graphs were taken by CMIAS-98A image analyzer.
The bones were dried at […] in the oven and then weighed to get the dry weight. The dry bones were carbonated and then incinerated in 800° C. muffle furnace for 6 hours. The ashes were weighed and then dissolved in 6N HCl, in order to measure the Ca and P levels.

`C#C[C@]1(O)[C@H](O)C[C@H]2[C@@H]3CCc4cc(OC5CCCC5)ccc4[C@H]3CC[C@@]21C` [Nylestriol]: where the note is “1 mg/kg once a week”, the “Ash Mass Index” value is recorded as 0.649 ± 0.024 g/g, the EI turned out to be 28.55 ± 7.03 KN · mm^2, the “K (spring strength)” value amounted to 248.91 ± 53.04 N/mm and the “Pb (maximum strength)” value worked out at 97 ± 9.4 N. For the same compound, for the setting “1 mg/kg once a week”, the “δb (maximum torsion index)” value turned out to be 0.54 ± 0.17 mm and the “σb (tensile strength)” value is listed as 147.79 ± 13.95 MPa. Besides, the “BMD level, Femur” value (DEXA, femoral head, 1 mg/kg/w) is 0.353 ± 0.030 g/cm^2. Besides, the “BMD level, Lumbar vertebra” value (DEXA, 1 mg/kg/w) is on record as 0.263 ± 0.015 g/cm^2. Under “bone ash, 1 mg/kg once a week”, this compound gave a Ca level of 0.254 ± 0.029 g/g and a P level of 0.130 ± 0.014 g/g. For the setting “femur, 1 mg/kg/w”, the “Average Trabecular Width” value amounted to 146.89 ± 22.27 μm and the “Percentage of Trabecular Area” value was found to be 0.9148 ± 0.0371.
